Results published in paper PMC5913603, “Structure–activity relationships of strigolactones via a novel, quantitative in planta bioassay” (Journal of Experimental Botany, 2018).
Like-named read-outs stand apart in the source and are kept apart here.

Assays:
[1] = Chemical stability in aqueous solutions, degradation followed by HPLC; type: physicochemical
Description: The compounds were first dissolved in methanol (30%) or acetonitrile (50%) and then diluted to the final concentrations with water. The time-course of degradation was monitored by HPLC using an Agilent Technologies HPLC chromatograph 1200 Series equipped with a photo-diode array (PDA) detector, a binary-gradient high-pressure pump, and an automatic sampler. The column used was a LiChroCART® 125-4 LiChrospher® 100 RP-18 (5 μm, Merck Millipore) maintained at 25 °C. The solvents were (A) water + 0.1% formic acid and (B) acetonitrile, and the flow rate was 0.8 ml min^–1. The initial mobile phase, 95% A / 5% B, was held for 3 min and then ramped linearly to 100% B at 23 min and held for 5 min before resetting to the original conditions. The sample injection volume was 10 μl. PDA detection was by absorbance in the 200–600-nm wavelength range. Peak detection was at the optimum wavelength (254 nm) and peak areas were used for quantification. Initial and subsequent measurements of peak area attributable to the tested compound were used to fit exponential half-life curves and to calculate first-order rate constants. Stability data allowed for calculation of the time in hours for half of the tested compound to be hydrolysed (t1/2).
Natural and synthetic SLs are rather sensitive to hydrolysis at pH 7 and are readily decomposed through the cleavage of the D-ring at pH 9.38 ([Vurro et al., 2016]). Therefore, differences in activity among SL analogues may be attributed to their instability in the aqueous medium. In order to address this point, the stability in aqueous solutions of the newly synthesized SL-D-lactams was tested, and compared to the (+)-GR24 standard ([Kannan and Zwanenburg, 2014]; [Halouzka et al., 2018]). Two different conditions were considered, a 30% solution of MeOH in water and a 1:1 solution of acetonitrile in water. As expected, stability in MeOH was highly compromised for all compounds, but to a greater extent for analogues showing both the Michael acceptor function (enol ether bridge) and an unprotected N in the D-lactam ring, as for rac-3, rac-4, rac-5, and rac-7 (Table 1): after a few hours 50% of the compounds were degraded. This was not surprising from a chemical point of view, as the functional group in SL-D-lactams is an aminal, which is more prone to hydrolysis than the acetal of the natural SL skeleton. […] For rac-5, the NH compound in the EGO10 family, the half-life dropped to 2 h.

[2] = test system: Phelipanche aegyptiaca seeds; assay: Germination-inducing activity on parasitic seeds; type: in vivo; conditions: for Fold lower potency than rac-GR24 (germination): compared with rac-GR24; for Concentration at which high germination activity was shown: high activity only at this concentration, germination normalized to rac-GR24 0.1 μM
Description: Seeds of Phelipanche aegyptiaca were collected from field-grown tomato in the West Galilee region of Israel. The seeds were stored in glass vials in the dark at room temperature until their use in germination tests. For the preparation of test solutions, the compound to be tested was weighed out very accurately, dissolved in acetone at 10^–2 M and then diluted with sterile distilled water to the desired concentrations. All solutions were prepared just before use. Seeds were surface-sterilized and preconditioned as described by [Bhattacharya et al. (2009)]. Briefly, after exposure for 5 min to 50% (v/v) aqueous solutions of commercial bleach (2% hypochlorite), seeds were rinsed with sterile distilled water. For preconditioning, seeds were placed on glass fibre filter discs using a sterile toothpick (approximately 50 seeds per disc); the glass fibre discs were placed on two filter paper discs, wetted with sterile distilled water, and incubated at 25 °C in the dark for 6 d. The preconditioned seeds were then allowed to dry completely in a laminar flow cabinet, after which they were treated with each compound at five different concentrations: 10^–5 M, 10^–6 M, 10^–7 M, 10^–8 M, and 10^–9 M. Their germination rate was evaluated under a stereomicroscope 7 d after the beginning of the treatment. For each concentration, at least 250 seeds were scored; synthetic SL rac-GR24 was included as a positive control across the same range of concentrations, while a solution of 0.001% acetone in sterile distilled water was included as a negative control. Seeds were scored as germinated if the radicle protruded through the seed coat 1 week after treatment. Germination values were normalized to those of rac-GR24 at 10^–7 M.
Fig. 3. Germination-inducing activity on Phelipanche aegyptiaca seeds of rac-1–9 and of strigol, ST23b, EGO10, and EDOT at different concentrations, compared to rac-GR24 0.1 μM as a positive control and to acetone as a negative control. […] The x-axis indicates the range of concentrations. Data are means (±SD) of n>250 seeds. Confidence intervals at 95% are used to express errors of the means. The data for rac-1–9 are indicated by ‘D-lactams’.

[3] = target: T1, AtD14 fused to firefly luciferase (D14::LUC) (Arabidopsis thaliana, UniProt Q9SQR3); assay: Luminometer (luciferase) assay: D14::LUC degradation in transgenic Arabidopsis seedlings; type: in vivo; conditions: for Activity in the luciferase assay at 1 μM: weaker than (+)-GR24; for D14 degradation in the luciferase assay: 0.01–100 μM range, racemic mixtures
T1 construct: a pDONOR207 carrying the D14 promoter fused to the D14 CDS; expressed in transfected cells
T1 sequence (Q9SQR3 1-267): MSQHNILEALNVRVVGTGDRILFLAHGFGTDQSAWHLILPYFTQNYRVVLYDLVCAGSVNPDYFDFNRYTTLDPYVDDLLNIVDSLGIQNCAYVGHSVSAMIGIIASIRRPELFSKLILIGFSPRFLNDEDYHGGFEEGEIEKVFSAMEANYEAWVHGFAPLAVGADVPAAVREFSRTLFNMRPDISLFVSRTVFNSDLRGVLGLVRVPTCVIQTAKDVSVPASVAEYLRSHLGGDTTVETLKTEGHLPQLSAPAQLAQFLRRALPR
Description: A binary D14p::D14::LUC vector was obtained by LR-recombination (Invitrogen) of a pDONOR207 carrying the D14 promoter fused to the D14 CDS ([Chevalier et al., 2014]) in pGWB435 ([Nakagawa et al., 2007]). Transgenic D14::D14::LUC Arabidopsis plants were generated by agroinfiltration of Col-0 plants using the floral dip method ([Clough and Bent, 1998]). Seeds were surface-sterilized with an 8% aqueous solution of commercial bleach in distilled water for 5 min and rinsed five times with sterile distilled water. Sterile seeds were plated on MS medium (pH 5.8) ([Murashige and Skoog, 1962]) without sucrose solidified with 1.2% Agar, and kept at 4 °C for 3 d (stratification). Seeds were then incubated for 7 d in a growth chamber at 25 °C and a photoperiod of 16 h light/8 h dark. SL analogues and mimics (Figs 1, 2) were accurately weighed and dissolved in acetone at 10^–2 M. Five different concentrations (10^–4 M, 10^–5 M, 10^–6 M, 10^–7 M, 10^–8 M) were prepared by 1:10 serial dilutions in liquid MS medium, together with blank controls containing corresponding water and acetone volumes in the medium. D-Luciferin (potassium salt) stock was prepared at 25 mg ml^–1 in DMSO, aliquoted and stored at –80 °C until use; all other solutions were prepared just before the assay. Using tweezers, 7-d-old Arabidopsis seedlings were placed in a 96-well microtiter plate with their cotyledons facing up (one seedling per well, in 170 µl of liquid MS medium), and 15 µl of luciferin (0.125 mg ml^–1, diluted 1:200 in MS from stock) was added to each well, corresponding to 1.875 µg. The plate was covered with a transparent film with a hole poked above each well to allow for gas exchange. Measurements were taken every 15 min in a multimode reader (LB942 Tristar2 S, Berthold Technologies) for the following 24 h; the signal was allowed to stabilize for 2–3 h in the light before treatments were started by adding 15 µl per well of the different SLs in MS medium, thus reaching a final volume in each well of 200 µl and 9.4 µg ml^– of luciferin. Appropriate blank controls were added as well. Each treatment was applied to a minimum of 16 wells (seedlings), each of which was measured individually over time. The percentage efficacy of each compound molecule was calculated 6 h after treatment as a function of the decrease in D14::LUC-emitted luminescence with respect to (+)-GR24 1 µM (i.e. GR24^5DS), assuming that the latter, minus the drift of the corresponding blank control, had 100% efficacy. For calibration purposes, SL analogues that had already been characterized, namely (±)-ST23b, (±)-EGO10, and (±)-EDOT ([Prandi et al., 2011]), were tested across the same concentration range, along with (±)-strigol (Chiralix, NL). The half maximal-effective concentration (EC50) for (+)-GR24 was calculated by linear regression fitting of the data (n=5, with at least three individual seedlings and values being pooled for each replicate) at the different concentrations, minus the values for acetone-treated samples (negative controls) and normalized in relation to (+)-GR24 0.01 μM, which was set to 0%. Confidence intervals at 95% were used to express errors of the means.
D14 is a target for proteasome-dependent destruction upon interaction with its ligand(s), which explains why fluorescence of D14::GFP fusion proteins is quenched upon SL treatment in transgenic Arabidopsis ([Chevalier et al., 2014]). We exploited this molecular network to implement a quantitative activity assay that inversely correlated luminescence to perception of SL-related molecules in transgenic Arabidopsis expressing D14::LUC under the control of the D14 endogenous promoter. […] We then used the assay to test various SLs in the same range, namely strigol as an example of natural SLs; ST23b, EGO10, and EDOT (Fig. 1, all used as rac mixtures) as examples of active SL analogues; and the new set of SL-D-lactams rac-1–9 (Fig. 2).
Fig. 4. Luciferase assay. […]

[4] = aqueous acetonitrile solution in HPLC vials, pH 6.7, 1:1 acetonitrile:water, 21 °C, pH 6.7, extrapolated from plots of peak area versus time, read-out: Half-life (t1/2, h) ACN:Water, 1:1 (converted)
[5] = aqueous methanol solution in HPLC vials, pH 6.7, 30% MeOH in water, 21 °C, pH 6.7, extrapolated from plots of peak area versus time, read-out: Half-life (t1/2, h) 30% MeOH (converted)
[6] = GraphPad fit, normalized with low acetone control

SMILES | half-life at 200 μg ml^–1 [1, 4] | half-life at 200 μg ml^–1 [1, 5] | Activity in the luciferase assay at 1 μM [3] | D14 degradation in the luciferase assay [3] | further results
CC1=C[C@H](O/C=C2/C(=O)O[C@@H]3c4ccccc4C[C@H]23)N(C(=O)OC(C)(C)C)C1=O (racemic) [rac-1] | 720 h | 110 h |  |  | Fold lower potency than rac-GR24 (germination) [2]: ~ 100 fold; Concentration at which high germination activity was shown [2]: 10 µM
CC1=C[C@H](O/C=C2/C(=O)O[C@H]3c4ccccc4C[C@@H]23)N(C(=O)OC(C)(C)C)C1=O (racemic) [rac-2] | 140 h | 21 h |  |  | Concentration at which some germination activity could still be detected ([2]; tested 10^-9 to 10^-5 M): 1 µM
CC1=C[C@H](O/C=C2\Cc3c(n(C)c4ccccc34)C2=O)NC1=O (racemic) [rac-5] | 24 h | 2 h |  |  | 
CC1=C[C@H](O/C=C2\Cc3c([nH]c4ccccc34)C2=O)N(C(=O)OC(C)(C)C)C1=O (racemic) [rac-6] | 528 h | 190 h |  |  | 
CC1=C[C@H](Oc2ccc(Br)cc2)NC1=O (racemic) [rac-7] | 17 h | 11 h |  |  | Fold lower potency than rac-GR24 (germination) [2]: ~ 100 fold; Concentration at which high germination activity was shown [2]: 10 µM
CC1=C[C@H](Oc2ccc(Br)cc2)N(C(=O)OC(C)(C)C)C1=O (racemic) [rac-8] | 1080 h | 230 h |  |  | 
CC1=C[C@H](O/C=C2/C(=O)O[C@@H]3c4ccccc4C[C@H]23)OC1=O (racemic) [rac-GR24, reference compound] |  |  |  |  | Concentration of maximum germination activity ([2]; concentrations equal to or above): ≥ 0.1 µM
CC1=C[C@H](O/C=C2/C(=O)O[C@@H]3c4ccccc4C[C@H]23)OC1=O [(+)-GR24] |  |  |  |  | half-life at 200 μg ml^–1 ([1]; buffer, pH 6.7, Half-life (t1/2, h) 30% MeOH): 80 h; half-life at 200 μg ml^–1 ([1]; buffer, pH 6.7, Half-life (t1/2, h) ACN:Water, 1:1): 3380 h; HILLSLOPE best-fit value (Table S1) [3, 6]: 0.4764; LOGIC50 best-fit value (Table S1) [3, 6]: -5.791; DC50 ([3]; read-out: EC50 (D14::LUC assay), 6 h after treatment, 0.01–100 μM, n=5): 1620 nM; DC50 ([3]; read-out: EC50 best-fit value (Table S1), GraphPad fit, normalized with low acetone control): 1620 nM
CC1=CC(O/C=C2/C(=O)c3c(c4cc(-c5scc6c5OCCO6)ccc4n3C)C2C)OC1=O (centres unmarked) [EDOT] |  |  | significant activity | induced high levels of D14 degradation | 
CC1=CC(O/C=C2\Cc3c(n(C)c4ccccc34)C2=O)OC1=O (centres unmarked) [EGO10] |  |  | significant activity | induced high levels of D14 degradation | 
CC1=CC(O/C=C2/C(=O)c3c(c4cc(-c5ccc(N(C)C)cc5)ccc4n3C)C2C)OC1=O (centres unmarked) [ST23b] |  |  | significant activity | induced high levels of D14 degradation | 
CC1=C[C@H](O/C=C2/C(=O)O[C@@H]3C4=C(C[C@H]23)[C@@H](O)CCC4(C)C)OC1=O [strigol] |  |  | significant activity | induced high levels of D14 degradation | 
